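A five-concentration, 48-hour dose response in 96-well plates underlies each endpoint, interpolated linearly between surrounding concentrations. TGI marks complete inhibition of growth.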
What was measured:
Experiment in all cases: growth of human tumour cells (NCI), 48 h
[1] = test system: HL-60(TB) leukemia
[2] = test system: SK-MEL-28 melanoma
[3] = test system: SF-268 CNS
[4] = test system: OVCAR-4 ovarian
[5] = test system: SK-MEL-2 melanoma
[6] = test system: T-47D breast
[7] = test system: HS 578T breast
[8] = test system: CCRF-CEM leukemia
[9] = test system: UACC-257 melanoma
[10] = test system: TK-10 renal
[11] = test system: SF-539 CNS
[12] = test system: MDA-N

Structure (SMILES)	TGI [1]	TGI [2]	TGI [3]	TGI [4]	TGI [5]	TGI [6]	TGI [7]	TGI [8]	TGI [9]	TGI [10]	TGI [11]	TGI [12]
COc1ccc(C(OCC2OC(n3cc(C)c(=O)[nH]c3=O)CC2n2cc(Cn3cc(Br)c(=O)[nH]c3=O)nn2)(c2ccccc2)c2ccccc2)cc1 (stereo not drawn)	5.09 µM	> 100 µM	> 100 µM	> 100 µM	> 100 µM	> 100 µM	> 100 µM	> 100 µM	> 100 µM	> 100 µM	> 100 µM	> 100 µM
CC(=O)Nc1ccc(-c2nc3cc(Cl)ccc3o2)cc1	> 50 µM	> 50 µM	> 50 µM	> 50 µM	> 50 µM	> 50 µM	> 50 µM	> 50 µM	> 50 µM	> 50 µM	> 50 µM	> 50 µM
N#C/C(N)=C(\C#N)NC=NCc1ccccc1	> 100 µM	> 100 µM	> 100 µM	> 100 µM	> 100 µM	> 100 µM	> 100 µM	> 100 µM	> 100 µM	> 100 µM	> 100 µM	> 100 µM
Cc1cc(C)nc(NS(=O)(=O)c2ccc(NNC(=O)c3cccc4c(=O)c5ccccc5[nH]c34)cc2)n1	> 100 µM	82.8 µM	> 100 µM	> 100 µM	76.5 µM	> 100 µM	> 100 µM	> 100 µM	> 100 µM	> 100 µM	> 100 µM	> 100 µM
COc1cc(C2SCC(=O)N2c2ccc(Cl)c(Cl)c2)cc(OC)c1OC (stereo not drawn)	> 73.9 µM	> 100 µM	> 100 µM	> 100 µM	> 100 µM	> 63.6 µM	> 100 µM	51.3 µM	> 100 µM	> 100 µM	> 100 µM	45.9 µM
CC(=O)Nc1ccc2cc(C)c(=O)[nH]c2n1	> 100 µM	> 100 µM	> 100 µM	> 100 µM	> 100 µM	> 100 µM	> 100 µM	> 100 µM	> 100 µM	> 100 µM	> 100 µM	> 100 µM
CC(CCC#N)(CCC#N)C(=O)CC(O)(C(F)(F)F)C(F)(F)F	3.99 µM	27.2 µM	> 58.8 µM	8.01 µM	89.2 µM	16.2 µM	60.6 µM	7.84 µM	21.1 µM	25.1 µM	8.75 µM	4.88 µM
C[C@@H]1CCC2[C@@H](C)[C@@H](OCCO[C@H]3OC4O[C@@]5(C)CCC6[C@H](C)CCC([C@H]3C)[C@@]46OO5)OC3O[C@@]4(C)CCC1[C@]32OO4 (stereo partly drawn)	> 100 µM	> 100 µM	> 100 µM	> 100 µM	6.06 µM	> 100 µM	> 100 µM	> 100 µM	> 100 µM	> 100 µM	> 100 µM	> 100 µM
S=c1[nH]n2c(COc3cccc(OCc4nnc5sc(=S)[nH]n45)c3)nnc2s1	72.1 µM	> 100 µM	> 100 µM	> 100 µM	> 100 µM	> 100 µM	> 100 µM	> 100 µM	> 100 µM	> 100 µM	> 100 µM	> 100 µM
